From US10703748B2, “Diazanaphthalen-3-yl carboxamides and preparation and use thereof” (Samumed, LLC, priority 2017, dated 2020)

Columns and labels:
IL-6 = IL-6 inhibition in LPS-stimulated human peripheral blood mononuclear cells (HTRF); conditions: Homo sapiens, PBMC; for EC50: 22 h; for inhibition at 10 µM: read-out: percentage in parentheses after EC50 >10
GSK3β kinase = GSK3β kinase (Homo sapiens, UniProt P49841); assay: GSK3β kinase activity (Ser/Thr 09 peptide Z-lyte FRET assay); format: biochemical; conditions: recombinant kinase, 46 μM ATP, one hour at room temperature; read-out: EC50
Sequence of GSK3β kinase (P49841 whole entry): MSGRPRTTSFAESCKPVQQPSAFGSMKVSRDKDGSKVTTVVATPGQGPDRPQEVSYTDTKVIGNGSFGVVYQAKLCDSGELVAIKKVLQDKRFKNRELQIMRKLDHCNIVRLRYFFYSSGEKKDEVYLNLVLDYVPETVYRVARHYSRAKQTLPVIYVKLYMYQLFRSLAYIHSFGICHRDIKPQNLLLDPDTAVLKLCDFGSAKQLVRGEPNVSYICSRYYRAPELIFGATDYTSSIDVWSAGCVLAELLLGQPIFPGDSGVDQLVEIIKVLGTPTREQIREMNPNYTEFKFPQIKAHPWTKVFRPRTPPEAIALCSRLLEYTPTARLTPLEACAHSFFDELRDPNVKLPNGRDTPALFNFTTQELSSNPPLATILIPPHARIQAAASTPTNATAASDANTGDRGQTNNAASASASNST

[1] = system: Tau phosphorylation at Ser396 (pSer396); assay: Tau phosphorylation at Ser396 (pSer396) in SH-SY5Y cells, ELISA / western blot; format: cell-based, human; conditions: Homo sapiens; SH-SY5Y cells, overnight (16-18 h); read-out: pSer396 Tau EC50;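 also: decrease in pSer396 Tau measured in lysates of treated cells by colorimetric ELISA or chemiluminescent western blot, same pSer396 antibody for both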
Method: Two days before treatment, cells were seeded onto 96 well plates at 5×10^4 cells/well.
The above synthesized compounds were screened using the cell assay procedure to assess decrease Tau phosphorylation at Ser396 (pSer396) described below.
Cells were lysed with RIPA buffer complemented with phosphatase and protease inhibitors then lysates were spun down at 12,000 g for 10 min to remove any cellular debris.

DYRK1A kinase = DYRK1A kinase (Homo sapiens, UniProt Q13627); assay: DYRK1A kinase activity (Ser/Thr 18 peptide Z-lyte FRET assay); format: biochemical; conditions: recombinant DYRK1A, 30 μM ATP, one hour at room temperature;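 also: kinase activity read as coumarin/fluorescein emission ratio after development step, with unphosphorylated and phosphorylated peptide forms setting 0% and 100% controls, values from dose-response curves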
[2] = system: α-smooth muscle actin (aSMA) positive LL29 cells; assay: Inhibition of the fibrotic process: αSMA staining in TGF-β1 treated LL29 fibroblasts from IPF patients; conditions: Homo sapiens, Fibroblast; for EC50: 96 h; for inhibition at 10 µM: read-out: percentage in parentheses after EC50 >10
[3] = system: SW480 colon carcinoma cells; assay: Cell viability assay (CellTiter-Glo); conditions: Homo sapiens; for EC50: SW480, 96 h; for inhibition at 10 µM: SW480, read-out: percent inhibition at 10 μM
[4] = system: Wnt-responsive Sp5-Luc reporter in SW480 colon carcinoma cells; assay: Screening assay for Wnt activity (Sp5-Luc reporter gene assay); conditions: Homo sapiens; for EC50: SW480; for inhibition at 10 µM: SW480, read-out: percent inhibition at 10 μM

SMILES	EC50 (IL-6)	inhibition at 10 µM (IL-6)	EC50 (GSK3β kinase)	EC50 [1]	EC50 (DYRK1A kinase)	EC50 [2]	inhibition at 10 µM [2]	EC50 [3]	inhibition at 10 µM [3]	EC50 [4]	inhibition at 10 µM [4]
O=C(Nc1ncc2ccc(-c3cncc(NCC4(F)CNC4)n3)cc2n1)C1CC1 [Compound 1777, N-(7-(6-(((3-Fluoroazetidin-3-yl)methyl)amino)pyrazin-2-yl)quinazolin-2-yl)cyclopropanecarboxamide]	> 10 µM	2.4%	0.098 µM	10 µM	0.005 µM	> 10 µM	41.1%	> 10 µM	27.6%	> 10 µM	35.4%
O=C(Nc1ncc2ccc(-c3cncc(N[C@H]4CCNC[C@@H]4F)n3)cc2n1)C1CC1 [Compound 1785, N-(7-(6-(((3S,4S)-3-Fluoropiperidin-4-yl)amino)pyrazin-2-yl)quinazolin-2-yl)cyclopropanecarboxamide]	> 10 µM	8.9%	0.135 µM	5.66 µM	0.007 µM	4 µM	–	> 10 µM	34.3%	4.27 µM	–
CC(C)CN1CCC(CC(=O)Nc2cc3cc(-c4cnn(C)c4)ncc3cn2)C1 (stereo not drawn) [Compound 3749, 2-(1-Isobutylpyrrolidin-3-yl)-N-(6-(1-methyl-1H-pyrazol-4-yl)-2,7-naphthyridin-3-yl)acetamide]	8.8 µM	–	0.006 µM	0.087 µM	0.01 µM	0.167 µM	–	3.61 µM	–	0.092 µM	–
Cn1cc(-c2cc3cc(NC(=O)c4ccnc(OC5CCNCC5)c4)ncc3cn2)cn1 [Compound 3780, N-(6-(1-Methyl-1H-pyrazol-4-yl)-2,7-naphthyridin-3-yl)-2-(piperidin-4-yloxy)isonicotinamide]	> 10 µM	6.7%	0.275 µM	> 10 µM	0.016 µM	4.76 µM	–	2.26 µM	–	1.53 µM	–
CCN(CC)CC(=O)Nc1cc2cc(-c3cnn(C)c3CN3CCCCC3)ncc2cn1 [Compound 3910, 2-(Diethylamino)-N-(6-(1-methyl-5-(piperidin-1-ylmethyl)-1H-pyrazol-4-yl)-2,7-naphthyridin-3-yl)acetamide]	> 10 µM	4.2%	0.115 µM	0.989 µM	0.059 µM	1.07 µM	–	3.54 µM	–	1.24 µM	–
Cn1ncc(-c2cc3cc(NC(=O)c4ccnc(N5CCOCC5)c4)ncc3cn2)c1CN1CCOCC1 [Compound 3941, N-(6-(1-methyl-5-(morpholinomethyl)-1H-pyrazol-4-yl)-2,7-naphthyridin-3-yl)-2-morpholinoisonicotinamide]	> 10 µM	5.5%	0.079 µM	0.571 µM	0.006 µM	1.19 µM	–	2.38 µM	–	1.34 µM	–
Cc1nnc(-c2cc3cc(NC(=O)C4CCN(C(=O)c5ccccc5)CC4)ncc3cn2)s1 [Compound 4346, 1-Benzoyl-N-(6-(5-methyl-1,3,4-thiadiazol-2-yl)-2,7-naphthyridin-3-yl) piperidine-4-carboxamide]	> 10 µM	2.4%	0.135 µM	1.54 µM	0.037 µM	> 10 µM	21.4%	> 10 µM	12.2%	> 10 µM	3.8%
O=C(Nc1cc2cc(-c3cncc(NCC4(F)CNC4)n3)ncc2cn1)C1CC1 [Compound 4498, N-(6-(6-(((3-Fluoroazetidin-3-yl)methyl)amino)pyrazin-2-yl)-2,7-naphthyridin-3-yl)cyclopropanecarboxamide]	3.09 µM	–	0.001 µM	0.037 µM	0.002 µM	0.436 µM	–	0.799 µM	–	0.383 µM	–
Cn1cc(-c2ccc3cnc(NC(=O)c4ccc(OC5CCNCC5)cc4)nc3c2)nn1 [Compound 4573, N-(7-(1-Methyl-1H-1,2,3-triazol-4-yl)quinazolin-2-yl)-4-(piperidin-4-yloxy) benzamide]	> 10 µM	9.6%	0.161 µM	10 µM	0.006 µM	> 10 µM	9.3%	2.7 µM	–	3.23 µM	–
